Assay results: ChEMBL document CHEMBL1857833, “Screening and optimization of specific chemical series against human African Trypanosomiasis (HAT)”
≈ marks a conversion by molar mass, not a printed value. Where “and” joins values, the source holds several entries; their conditions need not be identical. Identical values can stand only once.

What was measured:
Trypanosoma brucei = experiment: DNDI: Inhibition of Human African Trypanosomiasis, SBRI 427, in vitro; assay type: functional, organism-based
[1] = DNDI: Cytotoxicity against L929 mouse fibroblasts, 72 hour.; assay type: toxicity, cell-based; settings: mouse, L929 mouse fibroblasts
[2] = DNDI: Cytotoxicity against L929 mouse fibroblasts, CYTO-SP, 24 hour; assay type: toxicity, cell-based; settings: mouse, L929 mouse fibroblasts
[3] = Trypanosoma brucei, SBRI 427, read-out: IC50

SMILES	IC50 (Trypanosoma brucei; [3]) [µg/mL]	IC50 (Trypanosoma brucei)	IC50 at 72 h [1] [µg/mL]	IC50 at 24 h [2] [µg/mL]
CCCCCC(C)NCc1coc(-c2cccc(F)c2)n1 (stereo not given)	2.14 (≈ 7.37 µM)		7.19 (≈ 24.8 µM)	19 (≈ 65.4 µM)
CCCCc1ccc(-c2nc(C(F)(F)F)co2)cc1	> 5		43.8 (≈ 163 µM)	> 50
CCCCCC(C)NCc1cc(-c2ccccc2)n(C)n1 (stereo not given)	4.05 (≈ 14.2 µM)		12.8 (≈ 45 µM)	50 (≈ 175 µM)
CN(Cc1coc(-c2ccc(Cl)cc2)n1)C1CCCCC1	2.7 (≈ 8.86 µM)		11.4 (≈ 37.4 µM)	> 50
Clc1ccc(-c2nc(CN3CCCCC3)co2)cc1	> 5		34.4 (≈ 124 µM)	> 50
CCCCCC(C)NCc1csc(-c2ccccc2)n1 (stereo not given)	2.64 (≈ 9.15 µM)		4.45 (≈ 15.4 µM)	18 (≈ 62.4 µM)
CC1CC(NCc2coc(-c3sccc3Cl)n2)CC(C)(C)C1 (stereo not given)	> 5		> 50	> 50
Clc1ccc(-c2nc(CNC3CCCC3)co2)cc1	4.78 (≈ 17.3 µM)		12.9 (≈ 46.8 µM)	> 50
CCCCCC(C)NCc1coc(-c2ccccc2C)n1 (stereo not given)	4.1 (≈ 14.3 µM)		3.6 (≈ 12.6 µM)	16 (≈ 55.9 µM)
CCCCCC(C)NCc1coc(-c2ccc3ccccc3c2)n1 (stereo not given)	1.09 (≈ 3.38 µM)		5.65 (≈ 17.5 µM)	17 (≈ 52.7 µM)
CCCCCC(C)NCc1coc(-c2cc(F)cc(F)c2)n1 (stereo not given)	1.71 (≈ 5.55 µM)		7.08 (≈ 23 µM)	42 (≈ 136 µM)
CCCCCC(C)NCc1coc(-c2ccc(SC(F)(F)F)cc2)n1 (stereo not given)	1.12 (≈ 3.01 µM)		3.64 (≈ 9.77 µM)	> 50
CCCCCC(C)NCc1coc(-c2ccccc2OC(F)(F)F)n1 (stereo not given)	1.48 (≈ 4.15 µM)		3.23 (≈ 9.06 µM)	37 (≈ 104 µM)
CCCCCC(C)NCc1nc(-c2ccccc2)no1 (stereo not given)	> 5		30.8 (≈ 113 µM)	50 (≈ 183 µM)
CCCCCC(C)NCc1cccc(-c2ccccc2)c1 (stereo not given)	0.81 (≈ 2.88 µM)		3.39 (≈ 12 µM)	> 50
CCCCCC(C)NCc1coc(-c2ccc(OC(F)(F)F)cc2)n1 (stereo not given)	1.11 (≈ 3.11 µM)		3.56 (≈ 9.99 µM)	> 50
C[C@@H]1[C@H]2C[C@@H](C[C@H]1NCc1coc(-c3sccc3Cl)n1)C2(C)C	> 5		> 50	> 50
CCCCCC(C)NCc1ccc(-c2ccccc2)s1 (stereo not given)	1.8 (≈ 6.26 µM)		7.16 (≈ 24.9 µM)	23 (≈ 80 µM)
CCCCc1ccc(-c2nc(C(C)(C)C)co2)cc1	> 5		28.7 (≈ 112 µM)	> 50

SMILES	IC50 (Trypanosoma brucei; [3]) [µg/mL]	IC50 (Trypanosoma brucei)	IC50 at 72 h [1] [µg/mL]	IC50 at 24 h [2] [µg/mL]
CCCCCC(C)NCc1coc(-c2ccc(C(F)(F)F)cc2)n1 (stereo not given)	1.63 (≈ 4.79 µM)		3.55 (≈ 10.4 µM)	> 50
O=C(O)c1coc(-c2ccccc2)n1	> 5		> 50	> 50
CCCCCC(C)NCc1coc(-c2c(F)cccc2F)n1 (stereo not given)	4.83 (≈ 15.7 µM)		18.7 (≈ 60.6 µM)	> 50
CCCCc1ccc(-c2nc(-c3ccccc3)co2)cc1	> 5		26.6 (≈ 96 µM)	> 50
Clc1ccsc1-c1nc(CNC2CCCCCC2)co1	> 5		11.8 (≈ 38.1 µM)	> 50
C[C@H](NCc1coc(-c2ccc(Cl)cc2)n1)C1CCCCC1	2.29 (≈ 7.18 µM)		< 3.13	> 50
Clc1ccc(-c2nc(CNC3CC4CCC3C4)co2)cc1 (stereo not given)	2.81 (≈ 9.28 µM)		3.47 (≈ 11.5 µM)	40.7 (≈ 134 µM)
CCCC(CCC)NCc1coc(-c2ccc(OCC)cc2)n1			6.37 (≈ 20.1 µM)	> 50
COc1ccc(/C(CNC(C)C)=N/O)cc1	> 5			> 50
CC1CCCCN1CCCNCc1coc(-c2ccc(Cl)cc2Cl)n1 (stereo not given)		2.68 µg/mL and 1.13 µg/mL		42.2 (≈ 110 µM)
CCO/N=C/c1ccccc1-c1ccccc1	> 5			> 50
N#Cc1cccnc1Oc1ccccc1	> 5			> 50
CN(/C(=N\O)c1cccnc1OCc1cccc(F)c1)c1ccccc1	1.09 (≈ 3.1 µM)			> 50
COc1ccc(/C=N/OCc2ccccc2)cc1	> 5			> 50
CCc1ccccc1Oc1ncccc1C#N	> 5			> 50
O/N=C(/c1ccccc1-c1ccccc1)N1CCCCCCC1	> 5			> 50
Cc1cc(C)cc(Oc2ccc(/C(=N/O)NCC(C)(C)C)cn2)c1	0.77 (≈ 2.35 µM)			> 50
COc1ccc(/C=N/OCC(C)C)cc1	> 5			> 50
C[C@@H]1[C@H]2C[C@@H](C[C@H]1N/C(=N\O)c1ccccc1-c1ccccc1)C2(C)C	5 (≈ 14.3 µM)			17 (≈ 48.8 µM)

Second part, led by results:

IC50 (Trypanosoma brucei; [3]) [µg/mL]	IC50 (Trypanosoma brucei)	SMILES	IC50 at 72 h [1] [µg/mL]	IC50 at 24 h [2] [µg/mL]
0.29 (≈ 0.849 µM)	0.33 µg/mL (≈ 0.967 µM)	COc1ccc(Oc2ncccc2/C(=N/O)NC2CCCCC2)cc1	> 10	> 50
1.04 (≈ 3.16 µM)		COCCN/C(=N\O)c1cccnc1Oc1ccc(C(C)C)cc1		> 50
> 5		O/N=C(/NC1CCCCC1)c1ccc2ccccc2c1		21.1 (≈ 78.7 µM)
3.92 (≈ 16.6 µM)		O/N=C(\NC1CCCCC1)c1ccccc1F		> 50
0.44 (≈ 1.38 µM)		CCC(CC)N/C(=N\O)c1cccnc1OCC1CCCCC1		33.5 (≈ 105 µM)
> 5		N#Cc1cccnc1Oc1ccc2ccccc2c1		> 50
0.21 (≈ 0.622 µM)		Cc1ccc(Oc2ncccc2/C(=N/O)NCC2CC2)c2c1CCC2		> 50
> 5		COc1cc(C)ccc1Oc1ncccc1C(=N)N		> 50
0.15 (≈ 0.458 µM)		COc1ccc(Oc2ncccc2/C(=N/O)NC2CCCC2)cc1		> 50
0.91 (≈ 2.52 µM)		O/N=C(\NCC1CCCCC1)c1cccnc1Oc1c(F)cccc1F		> 50
0.03 (≈ 0.071 µM)		CC1CC(N/C(=N\O)c2cccnc2Oc2cc(Cl)ccc2Cl)CC(C)(C)C1 (stereo not given)		30.9 (≈ 73.2 µM)
1.08 (≈ 3.11 µM)		CCc1ccc(Oc2ncccc2/C(=N/O)NCc2ccccc2)cc1		> 50
	0.78 µg/mL and 0.28 µg/mL	Cc1ccc(Oc2nc(C)ccc2/C(=N/O)NC2CCCCC2)c(C)c1		34 (≈ 96.2 µM)
1.06 (≈ 2.63 µM)		Cc1ccccc1CN/C(=N\O)c1cccnc1Oc1cc(Cl)ccc1Cl		33.6 (≈ 83.6 µM)
0.49 (≈ 1.4 µM)		CCC(C)(C)N/C(=N\O)c1cccnc1Oc1ccc2ccccc2c1		> 50
1.02 (≈ 2.76 µM)		Cc1ccccc1CN/C(=N\O)c1cccnc1Oc1c(F)cccc1F		> 50
> 5		O/N=C(\NC1CCCCC1)c1ccccc1Br		> 50
> 5		O=C(NC1CCCCC1)c1cccnc1Oc1ccccc1		> 50
0.98 (≈ 2.53 µM)		CC(C)c1ccc(Oc2ncccc2/C(=N/O)NC2CCc3ccccc32)cc1 (stereo not given)		45.1 (≈ 116 µM)
1.15 (≈ 2.94 µM)		O/N=C(\NCc1c(F)cccc1F)c1cccnc1Oc1c(F)cccc1F		> 50
1.02 (≈ 3.28 µM)		Cc1cc(C)cc(Oc2ccc(/C(=N/O)NCC3CC3)cn2)c1		> 50
0.37 (≈ 1.05 µM)		CCC(CC)N/C(=N\O)c1cccnc1Oc1ccc(C)c2c1CCC2		> 50
0.28 (≈ 0.894 µM)		COc1ccc(Oc2ncccc2/C(=N/O)NC2CCC2)cc1		> 50
